SMILES strings stand for the structures.

Here are results for 43 compounds from ChEMBL document CHEMBL1133972, “Solid-Phase synthesis of a library constructed of aromatic phosphate, long alkyl chains and tryptophane components, and identification of potent dipeptide telomerase inhibitors” (Bioorg Med Chem Lett, 2001).

Telomerase reverse transcriptase, sequence (O14746 whole entry): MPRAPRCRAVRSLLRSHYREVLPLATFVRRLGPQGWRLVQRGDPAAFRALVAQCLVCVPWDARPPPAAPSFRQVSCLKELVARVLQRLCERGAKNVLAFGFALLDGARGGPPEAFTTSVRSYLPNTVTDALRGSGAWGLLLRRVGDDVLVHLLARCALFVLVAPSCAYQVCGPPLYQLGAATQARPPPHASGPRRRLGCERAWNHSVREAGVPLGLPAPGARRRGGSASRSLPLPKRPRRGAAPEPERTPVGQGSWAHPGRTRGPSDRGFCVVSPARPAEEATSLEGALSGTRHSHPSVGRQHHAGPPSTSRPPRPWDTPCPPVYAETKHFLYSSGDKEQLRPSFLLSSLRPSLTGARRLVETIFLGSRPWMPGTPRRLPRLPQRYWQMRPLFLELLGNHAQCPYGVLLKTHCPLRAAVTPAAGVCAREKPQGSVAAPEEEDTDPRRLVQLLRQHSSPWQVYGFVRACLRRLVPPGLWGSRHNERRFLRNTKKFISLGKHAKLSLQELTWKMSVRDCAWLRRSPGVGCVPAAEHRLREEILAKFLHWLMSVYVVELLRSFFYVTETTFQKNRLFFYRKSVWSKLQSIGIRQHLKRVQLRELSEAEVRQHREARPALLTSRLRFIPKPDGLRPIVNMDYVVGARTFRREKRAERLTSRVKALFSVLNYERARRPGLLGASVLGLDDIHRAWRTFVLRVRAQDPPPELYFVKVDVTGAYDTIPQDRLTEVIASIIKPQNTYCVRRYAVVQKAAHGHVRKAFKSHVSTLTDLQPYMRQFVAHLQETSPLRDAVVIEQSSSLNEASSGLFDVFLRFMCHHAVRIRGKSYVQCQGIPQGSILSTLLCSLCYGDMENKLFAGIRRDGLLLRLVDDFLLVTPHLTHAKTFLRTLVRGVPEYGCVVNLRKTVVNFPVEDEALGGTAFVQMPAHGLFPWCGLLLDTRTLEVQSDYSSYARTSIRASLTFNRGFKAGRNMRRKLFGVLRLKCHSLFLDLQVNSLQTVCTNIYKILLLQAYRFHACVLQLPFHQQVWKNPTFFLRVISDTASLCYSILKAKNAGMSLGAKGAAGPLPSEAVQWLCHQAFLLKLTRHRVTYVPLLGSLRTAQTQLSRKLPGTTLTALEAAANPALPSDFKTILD

The assay concerns the target Telomerase reverse transcriptase (Homo sapiens, UniProt O14746). The assay can be described thus: Inhibitory activity against telomerase extracted from HCT 116 cell lines. The class given is cell-free.
In turn, `O=C(CNC(=O)OCc1ccccc1)N[C@H](Cc1c[nH]c2ccccc12)C(=O)NCCCCCCCCCCCCOP(=O)(O)Oc1ccccc1Cl` gave an IC50 of 12.1 µM. That is a double-digit micromolar value.
The figure for `N[C@H](Cc1cc2ccccc2[nH]1)C(=O)N[C@@H](Cc1c[nH]c2ccccc12)C(=O)NCCCCCCCCCCCCOP(=O)(O)Oc1ccccc1Cl` (mixture of isomers) is 10.6 µM; for `CC(C)(C)OC(=O)N[C@H](Cc1cc2ccccc2[nH]1)C(=O)N[C@@H](Cc1c[nH]c2ccccc12)C(=O)NCCCC(=O)NCC(=O)NCCCCCCOP(=O)(O)Oc1ccccc1Cl` (mixture of isomers) it is over 100 µM.
`CC(=O)N[C@H](Cc1cc2ccccc2[nH]1)C(=O)N[C@H](Cc1c[nH]c2ccccc12)C(=O)NCCCCCCCCCCCCOP(=O)(O)Oc1ccccc1Cl` gave an IC50 of 22.9 µM.
For `CC(C)(C)OC(=O)N[C@H](Cc1cc2ccccc2[nH]1)C(=O)N[C@@H](Cc1c[nH]c2ccccc12)C(=O)NCCCCCCCCCCCCOP(=O)(O)Oc1ccccc1Cl` (racemic), the IC50 is over 100 µM.
Regarding `N[C@@H](Cc1cc2ccccc2[nH]1)C(=O)N[C@@H](Cc1c[nH]c2ccccc12)C(=O)NCCCC(=O)NCC(=O)NCCCCCCOP(=O)(O)Oc1ccccc1Cl`, the concentration for half-maximal inhibition (IC50) is over 100 µM.
With `CC(C)(C)OC(=O)N[C@H](Cc1ccccc1)C(=O)N[C@H](Cc1c[nH]c2ccccc12)C(=O)NCCCCCCCCCCCCOP(=O)(O)Oc1ccccc1Cl`, the concentration for half-maximal inhibition (IC50) came to 6.8 µM.
As for `Cc1cn(CCCn2cc(CC(=O)NCCCCCCCCCCCCOP(=O)(O)Oc3ccccc3Cl)c3ccccc32)c2ccccc12`, the IC50 came to 3.6 µM.
Compound `CC(=O)N[C@H](Cc1c[nH]c2ccccc12)C(=O)NCCCCCCCCCCCCOP(=O)(O)Oc1ccccc1Cl` displayed an IC50 of 90.7 µM.
Consider `CC(C)(C)OC(=O)N[C@H](Cc1cc2ccccc2[nH]1)C(=O)N[C@H](Cc1c[nH]c2ccccc12)C(=O)NCCCC(=O)NCC(=O)NCCCCCCOP(=O)(O)Oc1ccccc1Cl`, for which the IC50 is over 100 µM.
Consider `O=C(N[C@H](Cc1c[nH]c2ccccc12)C(=O)NCCCCCCCCCCCCOP(=O)(O)Oc1ccccc1Cl)c1ccccc1`, for which half-maximal inhibition (IC50) was put at 7.3 µM.
`CC(C)(C)OC(=O)N[C@@H](Cc1cc2ccccc2[nH]1)C(=O)N[C@H](Cc1c[nH]c2ccccc12)C(=O)NCCCCCCCCCCCCOP(=O)(O)Oc1ccccc1Cl` (mixture of isomers) gave an IC50 of over 100 µM.
Take `Cc1cn(CCCn2cc(CC(=O)NCCCCCCOP(=O)(O)Oc3ccccc3Cl)c3ccccc32)c2ccccc12`: the midpoint of inhibition, the IC50, lay at 29.4 µM.
`N[C@H](Cc1cc2ccccc2[nH]1)C(=O)N[C@H](Cc1c[nH]c2ccccc12)C(=O)NCCCCCCCCCCCCOP(=O)(O)Oc1ccccc1Cl` showed an IC50 of 13.7 µM.
Turning to `CC(C)(C)OC(=O)N[C@H](Cc1c[nH]c2ccccc12)C(=O)NCCCCCCCCCCCCOP(=O)(O)Oc1ccccc1Cl`, the IC50 is 18.3 µM.
`N[C@H](Cc1ccccc1)C(=O)N[C@H](Cc1c[nH]c2ccccc12)C(=O)NCCCCCCCCCCCCOP(=O)(O)Oc1ccccc1Cl` had an IC50 of 22.1 µM.
`N[C@H](Cc1c[nH]c2ccccc12)C(=O)NCCCCCCOP(=O)(O)Oc1ccccc1Cl`: the IC50 is over 100 µM.
The compound `O=C(CCCc1c[nH]c2ccccc12)NCCCCCCCCCCCCOP(=O)(O)Oc1ccccc1Cl` yielded an IC50 of 29.7 µM.
The compound `CC(C)(C)OC(=O)N[C@H](Cc1cc2ccccc2[nH]1)C(=O)N[C@H](Cc1c[nH]c2ccccc12)C(=O)NCCCCCCCCCCCCOP(=O)(O)Oc1ccccc1Cl` gave an IC50 of 18.9 µM.
In turn, `N[C@@H](Cc1c[nH]c2ccccc12)C(=O)NCCCCCCCCCCCCOP(=O)(O)Oc1ccccc1Cl` had a half-inhibitory concentration (IC50) of 15.1 µM.
Compound `N[C@H](Cc1cc2ccccc2[nH]1)C(=O)N[C@H](Cc1c[nH]c2ccccc12)C(=O)NCCCC(=O)NCC(=O)NCCCCCCOP(=O)(O)Oc1ccccc1Cl` yielded a half-maximal inhibitory concentration (IC50) of over 100 µM.
In turn, `O=C(N[C@H](Cc1c[nH]c2ccccc12)C(=O)NCCCCCCCCCCCCOP(=O)(O)Oc1ccccc1Cl)[C@H]1CCCN1` registered a half-inhibitory concentration (IC50) of over 100 µM.
The compound `CC(C)(C)OC(=O)N[C@H](CCC(=O)O)C(=O)N[C@H](Cc1c[nH]c2ccccc12)C(=O)NCCCCCCCCCCCCOP(=O)(O)Oc1ccccc1Cl` registered an IC50 of over 100 µM.
The result for `N[C@@H](Cc1ccccc1)C(=O)N[C@H](Cc1c[nH]c2ccccc12)C(=O)NCCCCCCCCCCCCOP(=O)(O)Oc1ccccc1Cl` (mixture of isomers) reads over 100 µM; that for `O=C(N[C@H](Cc1c[nH]c2ccccc12)C(=O)NCCCCCCCCCCCCOP(=O)(O)Oc1ccccc1Cl)OCc1ccccc1`, 3.6 µM.
For `CC(C)(C)OC(=O)N[C@@H](Cc1ccccc1)C(=O)N[C@H](Cc1c[nH]c2ccccc12)C(=O)NCCCCCCCCCCCCOP(=O)(O)Oc1ccccc1Cl`, the IC50 is over 100 µM.
With `N[C@H](Cc1cc2ccccc2[nH]1)C(=O)N[C@@H](Cc1c[nH]c2ccccc12)C(=O)NCCCC(=O)NCC(=O)NCCCCCCOP(=O)(O)Oc1ccccc1Cl` (racemic), the IC50 was over 100 µM.
Take `Cc1cn(CCCn2cc(CC(=O)NCCCC(=O)N3CCCC3C(=O)NCCCCCCOP(=O)(O)Oc3ccccc3Cl)c3ccccc32)c2ccccc12` (stereo not drawn): the midpoint of inhibition, the IC50, lay at 46.9 µM.
`N[C@H](CCC(=O)O)C(=O)N[C@H](Cc1c[nH]c2ccccc12)C(=O)NCCCCCCCCCCCCOP(=O)(O)Oc1ccccc1Cl` yielded an IC50 of over 100 µM.
For the compound `O=C(Cc1c[nH]c2ccccc12)NCCCCCCCCCCCCOP(=O)(O)Oc1ccccc1Cl`, it took 33.9 µM to reach half-maximal inhibition (IC50). This counts as double-digit micromolar.
The result for `N[C@@H](Cc1cc2ccccc2[nH]1)C(=O)N[C@H](Cc1c[nH]c2ccccc12)C(=O)NCCCC(=O)NCC(=O)NCCCCCCOP(=O)(O)Oc1ccccc1Cl` reads over 100 µM; that for `CC(C)(C)OC(=O)N[C@@H](Cc1cc2ccccc2[nH]1)C(=O)N[C@@H](Cc1c[nH]c2ccccc12)C(=O)NCCCC(=O)NCC(=O)NCCCCCCOP(=O)(O)Oc1ccccc1Cl`, over 100 µM; that for `Cc1cn(CCCn2cc(CC(=O)NCCOCCOCCOCCOP(=O)(O)Oc3ccccc3Cl)c3ccccc32)c2ccccc12`, over 100 µM.
The figure for `N[C@H](Cc1c[nH]c2ccccc12)C(=O)NCCCCCCCCCCCCOP(=O)(O)Oc1ccccc1Cl` is 45.2 µM.
`O=C(N[C@H](Cc1ccccc1)C(=O)NCCCCCCCCCCCCOP(=O)(O)Oc1ccccc1Cl)OCc1ccccc1` had a concentration for half-maximal inhibition (IC50) of over 100 µM.
The compound `CC(C)(C)OC(=O)N[C@@H](Cc1c[nH]c2ccccc12)C(=O)NCCCCCCCCCCCCOP(=O)(O)Oc1ccccc1Cl` came in with an IC50 of 20.7 µM.
The result for `CC(C)(C)OC(=O)N[C@@H](Cc1cc2ccccc2[nH]1)C(=O)N[C@H](Cc1c[nH]c2ccccc12)C(=O)NCCCC(=O)NCC(=O)NCCCCCCOP(=O)(O)Oc1ccccc1Cl` reads over 100 µM; that for `Cc1cn(CCCn2cc(CC(=O)NCCCC(=O)NCC(=O)NCCCCCCOP(=O)(O)Oc3ccccc3Cl)c3ccccc32)c2ccccc12`, over 100 µM.
The result for `CC(C)(C)OC(=O)N[C@H](Cc1c[nH]c2ccccc12)C(=O)NCCCCCCOP(=O)(O)Oc1ccccc1Cl` reads over 100 µM.
The result for `CC(C)(C)OC(=O)N[C@H](CCC(=O)OCc1ccccc1)C(=O)N[C@H](Cc1c[nH]c2ccccc12)C(=O)NCCCCCCCCCCCCOP(=O)(O)Oc1ccccc1Cl` reads 6.4 µM.
Take `CC(C)(C)OC(=O)N[C@@H](Cc1cc2ccccc2[nH]1)C(=O)N[C@@H](Cc1c[nH]c2ccccc12)C(=O)NCCCCCCCCCCCCOP(=O)(O)Oc1ccccc1Cl`: the IC50 was found to be 0.3 µM. Compared with the last compound, the IC50 is about 21-fold lower.
As for `CC(C)(C)OC(=O)N1CCC[C@@H]1C(=O)N[C@H](Cc1c[nH]c2ccccc12)C(=O)NCCCCCCCCCCCCOP(=O)(O)Oc1ccccc1Cl`, 9.5 µM corresponded to half-maximal inhibition (IC50). Against the preceding compound, the IC50 is about 32-fold higher.
The compound `N[C@@H](Cc1cc2ccccc2[nH]1)C(=O)N[C@@H](Cc1c[nH]c2ccccc12)C(=O)NCCCCCCCCCCCCOP(=O)(O)Oc1ccccc1Cl` displayed an IC50 of 11.1 µM.
